# Measured values taken from patent US6737383B1, “Herbicidal oxadiazolidines” (priority 1999, dated 2004).
# Columns and labels:
# purple nutsedge = test: Test B pre/postemergence purple nutsedge; assay type: in vivo, Cyperus rotundus
# Procedure, shortened: (§1)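 Test chemicals in a non-phytotoxic solvent mixture with surfactant were sprayed preemergence onto planted seeds and postemergence onto plants 2 to 18 cm tall (1- to 4-leaf stage). After twelve to sixteen days in a greenhouse, injury was visually rated against untreated controls from 0 (no effect) to 10 (complete control).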
# crabgrass = test: Test B pre/postemergence crabgrass; assay type: in vivo, Digitaria sanguinalis
# Procedure, shortened: as §1
# cocklebur = test: Test B pre/postemergence cocklebur; assay type: in vivo, Xanthium strumarium
# Procedure, shortened: as §1
# wild oat = test: Test B pre/postemergence wild oat; assay type: in vivo, Avena fatua
# Procedure, shortened: as §1
# giant foxtail = test: Test B pre/postemergence giant foxtail; assay type: in vivo, Setaria faberii
# Procedure, shortened: as §1
# pigweed = test: Test B pre/postemergence pigweed; assay type: in vivo, Amaranthus retroflexus
# Procedure, shortened: as §1
# blackgrass = test: Test B pre/postemergence blackgrass; assay type: in vivo, Alopecurus myosuroides
# Procedure, shortened: as §1
# corn = test: Test B pre/postemergence corn; assay type: in vivo, Zea mays
# Procedure, shortened: as §1
# rape = test: Test B pre/postemergence rape; assay type: in vivo, Brassica napus
# Procedure, shortened: as §1
# sugar beet = test: Test B pre/postemergence sugar beet; assay type: in vivo, Beta vulgaris
# Procedure, shortened: as §1
# wheat = test: Test B pre/postemergence wheat; assay type: in vivo, Triticum aestivum
# Procedure, shortened: as §1
# surinam grass = test: Test B pre/postemergence surinam grass; assay type: in vivo, Brachiaria decumbens
# Procedure, shortened: as §1
# velvetleaf = test: Test B pre/postemergence velvetleaf; assay type: in vivo, Abutilon theophrasti
# Procedure, shortened: as §1
# morningglory = test: Test B pre/postemergence morningglory; assay type: in vivo, Ipomoea hederacea
# Procedure, shortened: as §1
# bedstraw = test: Test B pre/postemergence bedstraw; assay type: in vivo, Galium aparine
# Procedure, shortened: as §1
# soybean = test: Test B pre/postemergence soybean; assay type: in vivo, Glycine max
# Procedure, shortened: as §1
# [1] = Postemergence, Rate 62 g/ha, scale of 0 to 10, 0 is no effect, 10 is complete control
# [2] = Postemergence, Rate 125 g/ha, scale 0 to 10, 0 is no effect, 10 is complete control
# [3] = Postemergence, Rate 500 g/ha, scale 0 to 10, 0 is no effect, 10 is complete control
# [4] = Preemergence, Rate 125 g/ha, scale 0 to 10, 0 is no effect, 10 is complete control
# [5] = Preemergence, Rate 500 g/ha, scale of 0 to 10 where 0 is no effect and 10 is complete control
# [6] = Rate 250 g/ha, Postemergence, scale of 0 to 10 where 0 is no effect and 10 is complete control
# [7] = Preemergence, Rate 62 g/ha, scale 0 to 10 (0 no effect, 10 complete control)
smiles,measurement,setting,value
Cc1noc(C)c1Cn1c(=O)on(C(=O)N(c2ccc(Cl)cc2)C(C)C)c1=O [Compound 540],Nutsedge plant response rating,purple nutsedge; [1],0
same,Nutsedge plant response rating,purple nutsedge; [2],0
same,"Plant response rating, Nutsedge",purple nutsedge; [3],0
same,Nutsedge plant response rating,purple nutsedge; [4],0
same,Nutsedge plant response rating (0 to 10 scale),"purple nutsedge; Preemergence, Rate 250 g/ha",0
same,Nutsedge plant response rating,purple nutsedge; [5],0
same,"Plant response rating, Nutsedge",purple nutsedge; [6],0
same,Crabgrass plant response rating,crabgrass; [1],5
same,Crabgrass plant response rating,crabgrass; [2],5
same,"Plant response rating, Crabgrass",crabgrass; [3],8
same,Crabgrass plant response rating,crabgrass; [7],8
same,Crabgrass plant response rating,crabgrass; [4],9
same,Crabgrass plant response rating (0 to 10 scale),"crabgrass; Preemergence, Rate 250 g/ha",10
same,Crabgrass plant response rating,crabgrass; [5],10
same,"Plant response rating, Crabgrass",crabgrass; [6],5
same,Cocklebur plant response rating,cocklebur; [1],0
same,Cocklebur plant response rating,cocklebur; [2],0
same,"Plant response rating, Cocklebur",cocklebur; [3],0
same,Cocklebur plant response rating,cocklebur; [7],0
same,Cocklebur plant response rating,cocklebur; [4],0
same,Cocklebur plant response rating (0 to 10 scale),"cocklebur; Preemergence, Rate 250 g/ha",9
same,Cocklebur plant response rating,cocklebur; [5],10
same,"Plant response rating, Cocklebur",cocklebur; [6],0
same,Wild oats plant response rating,wild oat; [1],0
same,Wild oats plant response rating,wild oat; [2],0
same,"Plant response rating, Wild oats",wild oat; [3],2
same,Wild oats plant response rating,wild oat; [7],0
same,Wild oats plant response rating,wild oat; [4],2
same,Wild oats plant response rating (0 to 10 scale),"wild oat; Preemergence, Rate 250 g/ha",2
same,Wild oats plant response rating,wild oat; [5],8
same,"Plant response rating, Wild oats",wild oat; [6],0
same,Giant foxtail plant response rating,giant foxtail; [1],0
same,Giant foxtail plant response rating,giant foxtail; [2],0
same,"Plant response rating, Giant foxtail",giant foxtail; [3],3
same,Giant foxtail plant response rating,giant foxtail; [7],9
same,Giant foxtail plant response rating,giant foxtail; [4],9
same,Giant foxtail plant response rating (0 to 10 scale),"giant foxtail; Preemergence, Rate 250 g/ha",10
same,Giant foxtail plant response rating,giant foxtail; [5],10
same,"Plant response rating, Giant foxtail",giant foxtail; [6],0
same,Redroot pigweed plant response rating,pigweed; [1],0
same,Redroot pigweed plant response rating,pigweed; [2],0
same,"Plant response rating, Redroot pigweed",pigweed; [3],2
same,Redroot pigweed plant response rating,pigweed; [7],0
same,Redroot pigweed plant response rating,pigweed; [4],0
same,Redroot pigweed plant response rating (0 to 10 scale),"pigweed; Preemergence, Rate 250 g/ha",3
same,Redroot pigweed plant response rating,pigweed; [5],10
same,"Plant response rating, Redroot pigweed",pigweed; [6],2
same,Blackgrass plant response rating,blackgrass; [1],0
same,Blackgrass plant response rating,blackgrass; [2],0
same,"Plant response rating, Blackgrass",blackgrass; [3],7
same,Blackgrass plant response rating,blackgrass; [7],0
same,Blackgrass plant response rating,blackgrass; [4],0
same,Blackgrass plant response rating (0 to 10 scale),"blackgrass; Preemergence, Rate 250 g/ha",0
same,Blackgrass plant response rating,blackgrass; [5],9
same,"Plant response rating, Blackgrass",blackgrass; [6],2
same,Corn plant response rating,corn; [1],0
same,Corn plant response rating,corn; [2],0
same,"Plant response rating, Corn",corn; [3],0
same,Corn plant response rating,corn; [7],0
same,Corn plant response rating,corn; [4],0
same,Corn plant response rating (0 to 10 scale),"corn; Preemergence, Rate 250 g/ha",0
same,Corn plant response rating,corn; [5],2
same,"Plant response rating, Corn",corn; [6],0
same,Rape plant response rating,rape; [1],0
same,Rape plant response rating,rape; [2],2
same,Rape plant response rating,rape; [7],0
same,Rape plant response rating,rape; [4],0
same,Rape plant response rating (0 to 10 scale),"rape; Preemergence, Rate 250 g/ha",2
same,Rape plant response rating,rape; [5],7
same,"Plant response rating, Rape",rape; [6],7
same,Sugarbeets plant response rating,sugar beet; [1],0
same,Sugarbeets plant response rating,sugar beet; [2],2
same,"Plant response rating, Sugarbeets",sugar beet; [3],6
same,Sugarbeets plant response rating,sugar beet; [7],0
same,Sugarbeets plant response rating,sugar beet; [4],0
same,Sugarbeets plant response rating (0 to 10 scale),"sugar beet; Preemergence, Rate 250 g/ha",0
same,Sugarbeets plant response rating,sugar beet; [5],4
same,"Plant response rating, Sugarbeets",sugar beet; [6],6
same,Wheat plant response rating,wheat; [1],0
same,Wheat plant response rating,wheat; [2],0
same,"Plant response rating, Wheat",wheat; [3],0
same,Wheat plant response rating,wheat; [7],0
same,Wheat plant response rating,wheat; [4],0
same,Wheat plant response rating (0 to 10 scale),"wheat; Preemergence, Rate 250 g/ha",0
same,Wheat plant response rating,wheat; [5],0
same,"Plant response rating, Wheat",wheat; [6],0
same,B. signalgrass plant response rating,surinam grass; [1],0
same,B. signalgrass plant response rating,surinam grass; [2],0
same,"Plant response rating, B. signalgrass",surinam grass; [3],3
same,B. signalgrass plant response rating,surinam grass; [7],0
same,B. signalgrass plant response rating,surinam grass; [4],0
same,"B. signalgrass plant response rating (0 to 10 scale, 0 is no effect, 10 is complete control)","surinam grass; Preemergence, Rate 250 g/ha",0
same,B. signalgrass plant response rating,surinam grass; [5],8
same,"Plant response rating, B. signalgrass",surinam grass; [6],0
same,Velvetleaf plant response rating,velvetleaf; [1],0
same,Velvetleaf plant response rating,velvetleaf; [2],0
same,"Plant response rating, Velvetleaf",velvetleaf; [3],1
same,Velvetleaf plant response rating,velvetleaf; [7],0
same,Velvetleaf plant response rating,velvetleaf; [4],0
same,Velvetleaf plant response rating (0 to 10 scale),"velvetleaf; Preemergence, Rate 250 g/ha",0
same,Velvetleaf plant response rating,velvetleaf; [5],0
same,"Plant response rating, Velvetleaf",velvetleaf; [6],0
same,Morningglory plant response rating,morningglory; [1],2
same,Morningglory plant response rating,morningglory; [2],4
same,"Plant response rating, Morningglory",morningglory; [3],6
same,Morningglory plant response rating,morningglory; [7],0
same,Morningglory plant response rating,morningglory; [4],0
same,Morningglory plant response rating (0 to 10 scale),"morningglory; Preemergence, Rate 250 g/ha",0
same,Morningglory plant response rating,morningglory; [5],0
same,"Plant response rating, Morningglory",morningglory; [6],5
same,Bedstraw plant response rating,bedstraw; [1],0
same,Bedstraw plant response rating,bedstraw; [2],3
same,"Plant response rating, Bedstraw",bedstraw; [3],9
same,Bedstraw plant response rating,bedstraw; [7],0
same,Bedstraw plant response rating,bedstraw; [4],0
same,Bedstraw plant response rating (0 to 10 scale),"bedstraw; Preemergence, Rate 250 g/ha",0
same,Bedstraw plant response rating,bedstraw; [5],0
same,"Plant response rating, Bedstraw",bedstraw; [6],10
same,Soybean plant response rating,soybean; [1],1
same,Soybean plant response rating,soybean; [2],1
same,"Plant response rating, Soybean",soybean; [3],1
same,Soybean plant response rating,soybean; [7],0
same,Soybean plant response rating,soybean; [4],0
same,Soybean plant response rating (0 to 10 scale),"soybean; Preemergence, Rate 250 g/ha",0
same,Soybean plant response rating,soybean; [5],0
same,"Plant response rating, Soybean",soybean; [6],1
